PubChem BioAssay (NCI)
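Five concentrations, 48 hours, 96-well plates. At the TGI there is no net growth.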

What was measured:
Assay in all cases: growth of human tumour cells (NCI), 48 h
[1] = system: SF-539 CNS
[2] = system: HCT-15 colon
[3] = system: NCI-H522 lung
[4] = system: U251 CNS
[5] = system: MDA-MB-231 breast
[6] = system: MCF7 breast
[7] = system: K-562 leukemia
[8] = system: SR leukemia
[9] = system: M14 melanoma
[10] = system: MALME-3M melanoma
[11] = system: A549 NSCLC
[12] = system: OVCAR-5 ovarian
[13] = system: KM12 colon
[14] = system: T-47D breast
[15] = system: MDA-N
[16] = system: HOP-62 NSCLC
[17] = system: NCI-H23 lung
[18] = system: LOX IMVI melanoma
[19] = system: IGROV1 ovarian
[20] = system: HT29 colon
[21] = system: SF-295 CNS
[22] = system: OVCAR-4 ovarian
[23] = system: PC-3 prostate
[24] = system: RXF 393 renal
[25] = system: CCRF-CEM leukemia
[26] = system: OVCAR-8 ovarian
[27] = system: SNB-19 CNS
[28] = system: NCI/ADR-RES ovarian
[29] = system: HL-60(TB) leukemia
[30] = system: HS 578T breast
[31] = system: SNB-75 CNS
[32] = system: SK-MEL-5 melanoma
[33] = system: SW-620 colon
[34] = system: ACHN renal
[35] = system: HCT-116 colon
[36] = system: CAKI-1 renal
[37] = system: BT-549 breast
[38] = system: COLO 205 colon
[39] = system: 786-0 renal
[40] = system: UACC-62 melanoma
[41] = system: UACC-257 melanoma
[42] = system: SF-268 CNS
[43] = system: MOLT-4 leukemia
[44] = system: A498 renal
[45] = system: SK-MEL-28 melanoma
[46] = system: NCI-H460 lung
[47] = system: EKVX NSCLC
[48] = system: SK-MEL-2 melanoma
[49] = system: DU-145 prostate
[50] = system: MDA-MB-435
[51] = system: OVCAR-3 ovarian
[52] = system: UO-31 renal
[53] = system: SN12C renal
[54] = system: SK-OV-3 ovarian
[55] = system: RPMI-8226 leukemia
[56] = system: TK-10 renal
[57] = system: HOP-92 NSCLC
[58] = system: HCC-2998 colon
[59] = system: NCI-H226 lung

## COc1nc(C#CC2CCCCC2)nc(OC)n1
[1]
  TGI: 6.31 µM
[2]
  TGI: 5.97 µM
[3]
  TGI: 6.33 µM
[4]
  TGI: 16.7 µM
[5]
  TGI: 13.2 µM
[6]
  TGI: 14.9 µM
[7]
  TGI: 28.4 µM
[8]
  TGI: > 100 µM
[9]
  TGI: 10.6 µM
[10]
  TGI: 6.49 µM
[11]
  TGI: 16.4 µM
[12]
  TGI: 12.3 µM
[13]
  TGI: 17.9 µM
[14]
  TGI: > 100 µM
[15]
  TGI: 25.2 µM
[16]
  TGI: 18.4 µM
[17]
  TGI: 8.6 µM
[18]
  TGI: 8.69 µM
[19]
  TGI: 14 µM
[20]
  TGI: > 100 µM
[21]
  TGI: 18 µM
[22]
  TGI: 27.3 µM
[23]
  TGI: 16.3 µM
[24]
  TGI: 19.1 µM
[25]
  TGI: 11.7 µM
[26]
  TGI: 3.44 µM
[27]
  TGI: 43.6 µM
[28]
  TGI: 4.59 µM
[29]
  TGI: 26 µM
[30]
  TGI: 17.7 µM
[31]
  TGI: 27.6 µM
[32]
  TGI: 15.3 µM
[33]
  TGI: 15.6 µM
[34]
  TGI: 17.5 µM
[35]
  TGI: 10.2 µM
[36]
  TGI: 12.5 µM
[37]
  TGI: 14.6 µM
[38]
  TGI: 53.5 µM
[39]
  TGI: 7.77 µM
[40]
  TGI: 4.38 µM
[41]
  TGI: 23.5 µM
[42]
  TGI: 20.4 µM
[43]
  TGI: > 100 µM
[44]
  TGI: 37.2 µM
[45]
  TGI: 32.8 µM
[46]
  TGI: 26.6 µM
[47]
  TGI: 32.6 µM
[48]
  TGI: 13.1 µM
[49]
  TGI: 14.6 µM
[50]
  TGI: 10.1 µM
[51]
  TGI: 8.97 µM
[52]
  TGI: 12.2 µM
[53]
  TGI: 11.1 µM
[54]
  TGI: > 100 µM
[55]
  TGI: 6.53 µM

## C=C1CC(C)(c2cccc(Nc3nc4ccccc4c4occc34)c2)OC1=O (configuration not stated)
[1]
  TGI: 3.47 µM
[2]
  TGI: 17.4 µM
[4]
  TGI: > 100 µM
[5]
  TGI: 23.1 µM
[6]
  TGI: 16.4 µM
[9]
  TGI: 7.26 µM
[10]
  TGI: 39.1 µM
[11]
  TGI: 46.3 µM
[56]
  TGI: 9.99 µM
[12]
  TGI: 31.7 µM
[13]
  TGI: 43.8 µM
[57]
  TGI: 7.29 µM
[14]
  TGI: 20.5 µM
[15]
  TGI: 18.3 µM
[16]
  TGI: 25.9 µM
[20]
  TGI: 16.6 µM
[21]
  TGI: 34.9 µM
[22]
  TGI: 20.4 µM
[23]
  TGI: 21.9 µM
[24]
  TGI: 6.02 µM
[25]
  TGI: 5.08 µM
[26]
  TGI: 21.3 µM
[27]
  TGI: 59.4 µM
[28]
  TGI: 26.8 µM
[29]
  TGI: 5.38 µM
[30]
  TGI: 9.16 µM
[31]
  TGI: 18.3 µM
[32]
  TGI: 28.3 µM
[34]
  TGI: 19.6 µM
[35]
  TGI: 3.1 µM
[36]
  TGI: 16.7 µM
[37]
  TGI: 17.4 µM
[38]
  TGI: 17.6 µM
[39]
  TGI: 3.08 µM
[40]
  TGI: 2.43 µM
[41]
  TGI: 3.47 µM
[42]
  TGI: 29.1 µM
[43]
  TGI: > 100 µM
[44]
  TGI: 32.1 µM
[45]
  TGI: 26.8 µM
[46]
  TGI: 33.8 µM
[47]
  TGI: 27.9 µM
[49]
  TGI: 19.9 µM
[50]
  TGI: 21.8 µM
[51]
  TGI: 17.5 µM
[52]
  TGI: 5.04 µM
[58]
  TGI: 5.84 µM
[53]
  TGI: 7.75 µM
[54]
  TGI: 27.2 µM
[59]
  TGI: 4.54 µM
[55]
  TGI: 4.62 µM

## CCOC(=O)c1cc(Br)c(-c2onc(C)c2Br)[nH]1
[1]
  TGI: > 100 µM
[2]
  TGI: > 100 µM
[4]
  TGI: 42.6 µM
[5]
  TGI: 45.5 µM
[6]
  TGI: > 100 µM
[7]
  TGI: > 100 µM
[8]
  TGI: > 100 µM
[9]
  TGI: > 100 µM
[10]
  TGI: > 100 µM
[11]
  TGI: > 100 µM
[12]
  TGI: > 100 µM
[13]
  TGI: > 100 µM
[57]
  TGI: > 100 µM
[14]
  TGI: > 100 µM
[15]
  TGI: > 100 µM
[16]
  TGI: 49.9 µM
[17]
  TGI: > 100 µM
[18]
  TGI: > 100 µM
[19]
  TGI: > 100 µM
[20]
  TGI: > 100 µM
[21]
  TGI: > 100 µM
[22]
  TGI: > 100 µM
[23]
  TGI: > 100 µM
[24]
  TGI: 38.7 µM
[25]
  TGI: > 100 µM
[26]
  TGI: 82.6 µM
[27]
  TGI: 74.8 µM
[28]
  TGI: > 100 µM
[29]
  TGI: > 100 µM
[30]
  TGI: > 100 µM
[31]
  TGI: > 100 µM
[32]
  TGI: > 100 µM
[33]
  TGI: > 100 µM
[35]
  TGI: > 100 µM
[36]
  TGI: > 100 µM
[37]
  TGI: > 100 µM
[38]
  TGI: > 100 µM
[39]
  TGI: 59.3 µM
[40]
  TGI: > 100 µM
[41]
  TGI: > 100 µM
[42]
  TGI: > 100 µM
[43]
  TGI: > 100 µM
[44]
  TGI: > 100 µM
[45]
  TGI: > 100 µM
[46]
  TGI: > 100 µM
[47]
  TGI: > 100 µM
[48]
  TGI: > 100 µM
[49]
  TGI: > 100 µM
[50]
  TGI: > 100 µM
[51]
  TGI: > 100 µM
[52]
  TGI: > 100 µM
[58]
  TGI: > 100 µM
[53]
  TGI: > 100 µM
[54]
  TGI: 74.4 µM
[59]
  TGI: > 100 µM
[55]
  TGI: > 100 µM
